According to publication PMC11923213, “Structural characterization reveals substrate recognition by the taurine transporter TauT” (Cell Discovery, 2025):
Positions count from the first letter of the chain named.

Columns and labels:
Assay type in all cases: cell-based
[1] = target: T1, TauT (taurine transporter, SLC6A6; TauT^WT) (Homo sapiens, UniProt P31641); experiment: Xenopus laevis oocytes, β-alanine-induced inward current
T1 construct: wild-type TauT expressed in Xenopus laevis oocytes for electrophysiology; cryo-EM sample details only in supplement
T1 sequence (P31641 1-620): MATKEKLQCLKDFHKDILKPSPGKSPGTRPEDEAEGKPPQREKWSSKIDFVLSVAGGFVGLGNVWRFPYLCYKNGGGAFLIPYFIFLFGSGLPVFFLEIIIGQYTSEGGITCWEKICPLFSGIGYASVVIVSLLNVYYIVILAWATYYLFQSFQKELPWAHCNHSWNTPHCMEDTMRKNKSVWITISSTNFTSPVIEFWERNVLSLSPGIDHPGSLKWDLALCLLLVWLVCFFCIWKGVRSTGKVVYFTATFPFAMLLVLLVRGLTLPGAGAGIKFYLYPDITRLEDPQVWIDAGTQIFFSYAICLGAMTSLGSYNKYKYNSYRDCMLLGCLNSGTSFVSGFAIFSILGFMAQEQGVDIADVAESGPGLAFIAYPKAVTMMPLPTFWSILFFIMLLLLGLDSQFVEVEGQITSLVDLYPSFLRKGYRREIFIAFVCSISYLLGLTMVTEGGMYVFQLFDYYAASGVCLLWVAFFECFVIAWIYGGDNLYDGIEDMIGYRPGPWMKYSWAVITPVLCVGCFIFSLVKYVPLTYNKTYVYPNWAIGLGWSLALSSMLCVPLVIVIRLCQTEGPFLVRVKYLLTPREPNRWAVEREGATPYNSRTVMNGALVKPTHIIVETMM

[2] = target: T2, TauT (taurine transporter, SLC6A6) (Homo sapiens, UniProt P31641, E406T); experiment: Xenopus laevis oocytes, taurine-induced inward current
T2 construct: wild-type TauT expressed in Xenopus laevis oocytes for electrophysiology; cryo-EM sample details only in supplement
T2 sequence (P31641 1-620 E406T): T1 sequence (P31641 1-620) with E406T

[3] = target: T1, TauT (taurine transporter, SLC6A6; TauT^WT); experiment: two-electrode voltage clamp in Xenopus laevis oocytes, taurine-induced inward current

Row | SMILES | EC50 [1] [µM] | EC50 [2] [µM] | EC50 [3] [µM]
1 | NCCC(=O)O [β-alanine] | 5.6 | – | –
2 | NCCS(=O)(=O)O [taurine] | – | 50.3 | 2.9
